Test results reported in patent publication US8470357B2, “Methods of treatment with Syk inhibitors” (Portola Pharmaceuticals, Inc., priority 2004, dated 2013).

Experiments:
[1] = tested on: platelet thrombus formation on type III collagen; experiment: Platelet thrombus formation on type III collagen under shear; format: cell-based, human
Method: Briefly, unanticoagulated human blood was exposed to type III collagen for 4 minutes at a rate of shear (e.g., about 850/sec.) equivalent to that encountered in coronary arteries.

[2] = tested on: leukocyte rolling on activated, collagen-adhering platelets; experiment: Recruitment of leukocytes to adherent, activated platelets under shear; format: cell-based; settings: increasing concentrations; citrated human blood with 2.5 μM Integrilin, type III collagen, 10 minutes, shear 650/sec (FIG. 3)
Method: Briefly, human blood, anticoagulated with citrate in the presence of 2.5 μM Integrilin, was exposed for 10 minutes to type III collagen at a shear rate of 650/sec.

[3] = tested on: leukocyte adhesion to IL-1β-activated human umbilical endothelial cells; experiment: Recruitment of leukocytes to activated endothelial cells under shear; format: cell-based; settings: 25 or 50 μM; citrated human blood, IL-1β-activated endothelial cells, shear 650/sec (FIG. 4)
Description: Briefly, cultured monolayers of human umbilical endothelial cells were activated by exposure to IL-1β for 24 hrs. Human blood, anticoagulated with citrate, was exposed to the activated endothelial cells at a shear rate of 650/sec for the time indicated.

CC(=O)N(C)c1ccc(Nc2nc(NC3CCC3)c3[nH]cnc3n2)cc1.Cl [NVP-QAB205]
platelet adhesion ([1]; at 5, 10, and 25 μM (see FIG. 2)): did not completely block platelet adhesion | inhibition of thrombus formation ([1]; increasing concentrations, unanticoagulated human blood, type III collagen, 4 minutes, shear about 850/sec (FIG. 2)): caused inhibition of thrombus formation | inhibition of leukocyte rolling [2]: caused inhibition of leukocyte rolling | inhibition of leukocyte adhesion to activated endothelial cells [3]: marked inhibition of leukocyte adhesion
